Data: patent US20220056043A1, “NITROGEN-CONTAINING FUSED CYCLIC COMPOUND, PREPARATION METHOD THEREFOR AND USE THEREOF” (SICHUAN KELUN-BIOTECH BIOPHARMACEUTICAL CO., LTD., priority 2019, published 2022)

Each molecule was assayed against T1, hTLR7 (Homo sapiens, UniProt Q9NYK1) (assay: Agonistic effect on hTLR7, HEK-hTLR7-NF-κB-Luciferase reporter cells). Conditions: 16 hours.
T1 construct: host or cells: HEK-hTLR7-NF-κB-Luciferase cells
T1 sequence (Q9NYK1 27-1049): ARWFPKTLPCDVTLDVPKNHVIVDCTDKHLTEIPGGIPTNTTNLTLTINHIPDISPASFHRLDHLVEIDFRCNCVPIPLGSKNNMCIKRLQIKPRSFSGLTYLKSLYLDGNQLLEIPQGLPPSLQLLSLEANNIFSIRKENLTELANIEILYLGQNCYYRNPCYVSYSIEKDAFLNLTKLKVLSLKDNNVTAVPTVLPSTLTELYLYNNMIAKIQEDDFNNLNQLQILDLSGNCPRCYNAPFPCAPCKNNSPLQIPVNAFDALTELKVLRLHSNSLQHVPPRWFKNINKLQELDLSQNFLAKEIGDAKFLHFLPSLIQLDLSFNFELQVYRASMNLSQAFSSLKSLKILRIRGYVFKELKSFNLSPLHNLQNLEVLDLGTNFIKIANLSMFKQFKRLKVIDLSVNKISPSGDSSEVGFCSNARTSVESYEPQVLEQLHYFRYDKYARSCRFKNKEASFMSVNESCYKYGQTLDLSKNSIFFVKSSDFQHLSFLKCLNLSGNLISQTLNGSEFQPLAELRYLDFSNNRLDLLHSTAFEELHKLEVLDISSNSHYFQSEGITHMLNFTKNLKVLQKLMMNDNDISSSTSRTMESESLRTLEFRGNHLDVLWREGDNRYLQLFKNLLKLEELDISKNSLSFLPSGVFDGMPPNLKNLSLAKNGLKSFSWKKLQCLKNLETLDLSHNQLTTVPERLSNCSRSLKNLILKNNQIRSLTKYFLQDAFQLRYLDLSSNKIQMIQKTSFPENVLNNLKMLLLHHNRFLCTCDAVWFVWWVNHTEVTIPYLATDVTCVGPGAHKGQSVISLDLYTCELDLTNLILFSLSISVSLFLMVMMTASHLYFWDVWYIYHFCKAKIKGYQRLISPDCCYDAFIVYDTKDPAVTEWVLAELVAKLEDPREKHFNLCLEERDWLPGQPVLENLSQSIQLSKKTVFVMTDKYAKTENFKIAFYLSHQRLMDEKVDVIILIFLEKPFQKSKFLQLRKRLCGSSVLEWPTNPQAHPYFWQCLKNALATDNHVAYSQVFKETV
Type: cell-based
From the text: Experimental Example 3: Agonistic Effect of the Compound of the Invention on hTLR7
In this test, the luciferase in HEK-hTLR7-NF-κB-reporter cells was detected to test the activating effect of the compound of the invention on TLR7 signaling pathway, so as to evaluate the specificity of the agonistic effect of the compound on NLRP3 pathway.
Reagents: DMEM (High glucose); FBS (fetal bovine serum) (Gibco); Bright-Glo™ Luciferase detection kit (Promega)
Cells: HEK-hTLR7-NF-κB-Luciferase gene cells (human TLR7 NF-κB-luciferase reporter gene cells) (Nanjing Cobioer)
1) The HEK-hTLR7-NF-κB-Luciferase cells in a logarithmic growth phase were trypsinized and resuspended in the medium to a concentration of 2×10^6 cells/mL. 50 μL/well of the cell resuspension was added to a 96-well plate such that the number of cells in each well was […]. An appropriate amount of 10 mM DMSO solution of the compound to be tested was taken and diluted to a concentration of 2× test concentration with the medium. 50 μL/well was added to the cells in the 96-well plate, and the 96-well plate was incubated in an incubator at 37° C. and 5% CO2 for 16 hours. The medium was DMEM (High glucose) containing 10% FBS.
2) After the cell incubation, 100 μL/well of Bright-Glo™ Luciferase detection reagent was added, and the mixture was incubated at room temperature for 5 minutes. Relative luciferase activity unit (RLU) was read using a microplate reader.
3) The EC50 of effect of the tested compound to stimulate hTLR7 was fitted by the GraphPad software log(agonist) vs. response—Variable slope four-parameter method.
Work on `Nc1cc(NCC2CC2)c2sc(-c3ccn[nH]3)cc2n1` [Compound 102, N^7-(cyclopropylmethyl)-2-(1H-pyrazol-5-yl)thieno[3,2-b]pyridine-5,7-diamine] yielded an EC50 greater than 100 µM.
Molecule `CN1CCC[C@@H](Nc2cc(N)nc3cc(-c4ccn[nH]4)sc23)C1` [Compound 104, (R)—N^7-(1-methylpiperidin-3-yl)-2-(1H-pyrazol-5-yl)thieno[3,2-b]pyridine-5,7-diamine] has an EC50 greater than 100 µM.
`Nc1cc(NC[C@@H]2CCCO2)c2sc(-c3ccn[nH]3)cc2n1` [Compound 105, (S)-2-(1H-pyrazol-5-yl)-N^7-((tetrahydrofuran-2-yl)methyl)thieno[3,2-b]pyridine-5,7-diamine] was tested, and the EC50 was greater than 100 µM.
For `Cn1cc(CNc2cc(N)nc3cc(-c4ccn[nH]4)sc23)cn1` [Compound 106, N^7-(1-methyl-1H-pyrazol-4-yl)methyl-2-(1H-pyrazol-5-yl)thieno[3,2-b]pyridine-5,7-diamine], the EC50 was greater than 100 µM.
`C[C@@H](CO)Nc1cc(N)nc2cc(-c3ccn[nH]3)sc12` [Compound 108, (S)-2-((5-amino-2-(1H-pyrazol-5-yl)thieno[3,2-b]pyridin-7-yl)amino)propanol] gave an EC50 greater than 100 µM.
Molecule `Cn1cc(-c2cc3nc(N)cc(NCCCO)c3s2)cn1` [Compound 109, 3-((5-amino-2-(1-methyl-1H-pyrazol-4-yl)thieno[3,2-b]pyridin-7-yl)amino)-1-propanol] has an EC50 greater than 100 µM.
Molecule `Nc1cc(NC2CCCC2)c2sc(-c3ccn[nH]3)cc2n1` [Compound 110, N^7-cyclopentyl-2-(1H-pyrazol-5-yl)thieno[3,2-b]pyridine-5,7-diamine] has an EC50 greater than 100 µM.
`COC(C)(C)CNc1cc(N)nc2cc(-c3ccn[nH]3)sc12` [Compound 111, N^7-(2′-methoxy-2′-methylpropyl)-2-(1H-pyrazol-5-yl)thieno[3,2-b]pyridine-5,7-diamine] showed an EC50 greater than 100 µM.
With `Nc1cc(NC2COC2)c2sc(-c3ccn[nH]3)cc2n1` [Compound 112, N^7-(oxetan-3-yl)-2-(1H-pyrazol-5-yl)thieno[3,2-b]pyridine-5,7-diamine] the EC50 was greater than 100 µM.
`CCC(CC)Nc1cc(N)nc2cc(-c3ccn[nH]3)sc12` [Compound 113, N^7-(pent-3-yl)-2-(1H-pyrazol-5-yl)thieno[3,2-b]pyridine-5,7-diamine] gave an EC50 greater than 100 µM.
For `Nc1cc(NC2CCC(O)CC2)c2sc(-c3ccn[nH]3)cc2n1` (stereo not drawn) [Compound 114, 4-((5-amino-2-(1H-pyrazol-5-yl)thieno[3,2-b]pyridin-7-yl)amino)-1-cyclohexanol], the EC50 was greater than 100 µM.
For `CC(C)(CO)CNc1cc(N)nc2cc(-c3ccn[nH]3)sc12` [Compound 115, 3-((5-amino-2-(1H-pyrazol-5-yl)thieno[3,2-b]pyridin-7-yl)amino)-2,2-dimethyl-1-propanol], the EC50 was greater than 100 µM.
In the case of `Nc1cc(NCC(F)F)c2sc(-c3ccn[nH]3)cc2n1` [Compound 116, N^7-(2,2-difluoroethyl)-2-(1H-pyrazol-5-yl)thieno[3,2-b]pyridine-5,7-diamine], the EC50 is reported as greater than 100 µM.
Molecule `C[C@@H]1CN(CCNc2cc(N)nc3cc(-c4ccn[nH]4)sc23)C[C@H](C)O1` [Compound 117, N^7-(2-((2S,6R)-2,6-dimethylmorpholino)ethyl)-2-(1H-pyrazol-5-yl)thieno[3,2-b]pyridine-5,7-diamine] has an EC50 greater than 100 µM.
With `N#CC1(CNc2cc(N)nc3cc(-c4ccn[nH]4)sc23)CC1` [Compound 119] the EC50 was greater than 100 µM.
With `Nc1cc(NCC2CCOCC2)c2sc(-c3ccn[nH]3)cc2n1` [Compound 120, 2-(1H-pyrazol-5-yl)-N^7-((tetrahydro-2H-pyran-4-yl)methyl)thieno[3,2-b]pyridine-5,7-diamine] the EC50 was greater than 100 µM.
With `CC1(CNc2cc(N)nc3cc(-c4ccn[nH]4)sc23)COC1` [Compound 121, N^7-((3-methyloxetan-3-yl)methyl)-2-(1H-pyrazol-5-yl)thieno[3,2-b]pyridine-5,7-diamine] the EC50 was greater than 100 µM.
With `CC(CO)(CO)CNc1cc(N)nc2cc(-c3ccn[nH]3)sc12` [Compound 122] the EC50 was greater than 100 µM.
Molecule `Cc1c(-c2cc[nH]n2)sc2c(NCCN3CCOCC3)cc(N)nc12` [Compound 153] has an EC50 greater than 100 µM.
Work on `Cc1c(-c2cc[nH]n2)sc2c(NCC3CC3)cc(N)nc12` [Compound 156] yielded an EC50 greater than 100 µM.
`Cc1c(-c2ccn[nH]2)sc2c(NC[C@@H]3CCCO3)cc(N)nc12` [Compound 157] showed an EC50 greater than 100 µM.
In the case of `Cc1c(-c2cc[nH]n2)sc2c(NCCCO)cc(N)nc12` [Compound 159], the EC50 is reported as greater than 100 µM.
Molecule `Nc1cc(N2CCN(C3CCCC3)CC2)c2sc(-c3ccn[nH]3)cc2n1` [Compound 160] has an EC50 greater than 100 µM.
`CN1CCN(c2cc(N)nc3cc(-c4ccn[nH]4)sc23)CC1` [Compound 161] gave an EC50 greater than 100 µM.
With `CC(C)N1CCN(c2cc(N)nc3cc(-c4ccn[nH]4)sc23)CC1` [Compound 162] the EC50 was greater than 100 µM.
For `Nc1cc(N2CCN(C3CC3)CC2)c2sc(-c3ccn[nH]3)cc2n1` [Compound 163], the EC50 was greater than 100 µM.
In the case of `CS(=O)(=O)N1CCN(c2cc(N)nc3cc(-c4ccn[nH]4)sc23)CC1` [Compound 164], the EC50 is reported as greater than 100 µM.
For `COC1(C)CCN(c2cc(N)nc3cc(-c4ccn[nH]4)sc23)CC1` [Compound 165], the EC50 was greater than 100 µM.
For `Nc1cc(N2CCCC(O)C2)c2sc(-c3ccn[nH]3)cc2n1` (stereo not drawn) [Compound 166], the EC50 was greater than 100 µM.
With `Nc1cc(N2CCN(C3CCCCC3)CC2)c2sc(-c3ccn[nH]3)cc2n1` [Compound 167] the EC50 was greater than 100 µM.
`C[C@H]1CN(c2cc(N)nc3cc(-c4ccn[nH]4)sc23)C[C@H](C)O1` [Compound 168] gave an EC50 greater than 100 µM.
Molecule `C[C@@H]1CN(c2cc(N)nc3cc(-c4ccn[nH]4)sc23)C[C@H](C)O1` [Compound 169] has an EC50 greater than 100 µM.
`Nc1cc(N2CCOCC2)c2sc(-c3ccn[nH]3)cc2n1` [Compound 170] gave an EC50 greater than 100 µM.
`CC1(C)CN(c2cc(N)nc3cc(-c4ccn[nH]4)sc23)CCO1` [Compound 171] gave an EC50 greater than 100 µM.
Work on `Nc1cc(N2CCC(O)CC2)c2sc(-c3ccn[nH]3)cc2n1` [Compound 172] yielded an EC50 greater than 100 µM.
`CC1(C)CCN(c2cc(N)nc3cc(-c4ccn[nH]4)sc23)CC1` [Compound 173] was tested, and the EC50 was greater than 100 µM.
`Nc1cc(N2CCN(c3ccccc3)CC2)c2sc(-c3ccn[nH]3)cc2n1` [Compound 174] showed an EC50 greater than 100 µM.
Molecule `Nc1cc(N2CCNCC2)c2sc(-c3ccn[nH]3)cc2n1` [Compound 175] has an EC50 greater than 100 µM.
Molecule `Nc1cc(N2CC3CC(C2)N3)c2sc(-c3ccn[nH]3)cc2n1` [Compound 176] has an EC50 greater than 100 µM.
With `C[C@@H]1COCCN1c1cc(N)nc2cc(-c3ccn[nH]3)sc12` [Compound 177] the EC50 was greater than 100 µM.
Molecule `Nc1cc(N2CCN(C=O)CC2)c2sc(-c3ccn[nH]3)cc2n1` [Compound 178] has an EC50 greater than 100 µM.
With `Nc1cc(N2CC3CC(C2)N3C=O)c2sc(-c3ccn[nH]3)cc2n1` [Compound 179] the EC50 was greater than 100 µM.
In the case of `COC1CCN(c2cc(N)nc3cc(-c4ccn[nH]4)sc23)C1` (stereo not drawn) [Compound 180], the EC50 is reported as greater than 100 µM.
`Nc1cc(N2CC[C@@H](O)C2)c2sc(-c3ccn[nH]3)cc2n1` [Compound 181] showed an EC50 greater than 100 µM.
For `Nc1cc(N[C@H]2C[C@H]2CO)c2sc(-c3ccn[nH]3)cc2n1` [Compound 182s], the EC50 was greater than 100 µM.
